Experimental findings from ChEMBL document CHEMBL4706639, “Discovery of Novel Azetidine Amides as Potent Small-Molecule STAT3 Inhibitors” (J Med Chem, 2021) are described below.

Molecules are shown by their SMILES.

Assay [1] has as its system MCF7. As to the kind of experiment: Antiproliferative activity against human MCF7 cells assessed as reduction in cell viability incubated for 72 hrs by CyQuant assay. Format: functional, cell-based. To be noted: MCF7, 72 h.
The subject of assay [2] is MDA-MB-231. The assay is described as follows: Antiproliferative activity against human MDA-MB-231 cells assessed as reduction in cell viability incubated for 72 hrs by CyQuant assay. Format: functional, cell-based. Conditions: MDA-MB-231, 72 h.
Assay [3] deals with MCF-10A. The assay is described as follows: Cytotoxicity against human MCF-10A cells assessed as reduction in cell viability incubated for 72 hrs by CyQuant assay. Format: cell-based.
Assay [4] relates to MDA-MB-468. The assay is described as follows: Antiproliferative activity against human MDA-MB-468 cells harbouring STAT3 assessed as reduction in cell viability incubated for 72 hrs by CyQuant assay. Format: functional, cell-based. Conditions: MDA-MB-468, 72 h.

With `O=C([C@H]1CCN1S(=O)(=O)c1c(F)c(F)c(F)c(F)c1F)N(Cc1ccc(C2CCCCC2)cc1)c1ccc2c(=O)[nH]ncc2c1`, the EC50 (usually the concentration at which the effect is half-maximal) in assay [1] is 4.5 µM; in assay [2] it was 1.6 µM; in assay [3], 4.6 µM; in assay [4] it was 1.1 µM.

`O=C([C@H]1CCN1S(=O)(=O)c1c(F)c(F)c(F)c(F)c1F)N(Cc1cnc(C2CCCCC2)cn1)c1cc2[nH]ncc2cc1F`: the EC50 in assay [1] amounted to 4.6 µM; in assay [2], 2 µM; in assay [3], 3.2 µM; in assay [4], 2 µM.

For `O=C([C@H]1CCN1S(=O)(=O)c1c(F)c(F)c(F)c(F)c1F)N(Cc1ccc(C2CCCCC2)cn1)c1ccc2nn[nH]c2c1`, the EC50 turned out to be 6.6 µM in assay [2] and 5.1 µM in assay [4].

Regarding `Cn1cnc2cc(N(Cc3ccc(C4CCCCC4)cn3)C(=O)[C@H]3CCN3S(=O)(=O)c3c(F)c(F)c(F)c(F)c3F)ccc2c1=O`, the EC50 in assay [1] worked out at 3.2 µM; in assay [2], 2.1 µM; in assay [3], 4.7 µM; in assay [4], 2.2 µM.

Regarding `CONC(=O)c1ccc(N(Cc2ccc(C3CCCCC3)cn2)C(=O)[C@H]2CCN2S(=O)(=O)c2c(F)c(F)c(F)c(F)c2F)cc1O`, the EC50 came out at 6.7 µM in assay [2] and 3.9 µM in assay [4].

Take `O=C1NCc2cc(N(Cc3ccc(C4CCCCC4)cn3)C(=O)[C@H]3CCN3S(=O)(=O)c3c(F)c(F)c(F)c(F)c3F)ccc21`: in assay [2], the EC50 came to 2 µM.

Turning to `O=C([C@H]1CCN1S(=O)(=O)c1c(F)c(F)c(F)c(F)c1F)N(Cc1cnc(C2CCCCC2)cn1)c1ccc2nn[nH]c2c1`, the 50% effective concentration (EC50) is 2.1 µM in assay [2] and 2.3 µM in assay [4].

With `O=C([C@H]1CCN1S(=O)(=O)c1c(F)c(F)c(F)c(F)c1F)N(Cc1cnc(C2CCCCC2)cn1)c1ccc2c(=O)[nH]ncc2c1`, in assay [2], the 50% effective concentration (EC50) came to 4.8 µM.

Take `O=C(NO)c1ccc(N(Cc2cnc(C3CCCCC3)cn2)C(=O)[C@H]2CCN2S(=O)(=O)c2c(F)c(F)c(F)c(F)c2F)cc1O`: the EC50 in assay [2] amounted to 5.2 µM; in assay [4] it was 5.1 µM.

As to `O=C(NO)c1ccc(N(Cc2ccc(C3CCCCC3)cn2)C(=O)[C@H]2CCN2S(=O)(=O)c2c(F)c(F)c(F)c(F)c2F)c(F)c1`, the EC50 in assay [2] is 5.8 µM; in assay [4] it was 4.2 µM.

Consider `Cn1ccc2cc(N(Cc3ccc(C4CCCCC4)cn3)C(=O)[C@H]3CCN3S(=O)(=O)c3c(F)c(F)c(F)c(F)c3F)ccc2c1=O`, for which the figures for the EC50 in assay [1], in assay [2] and in assay [3] were 2.8 µM, 2.3 µM and 4.4 µM, respectively.

As to `O=C(NO)c1ccc(N(Cc2ccc(C3CCCCC3)cc2)C(=O)[C@H]2CCN2S(=O)(=O)c2c(F)c(F)c(F)c(F)c2F)cc1`, the results for the 50% effective concentration (EC50) in assay [1], in assay [2] and in assay [3] were 6.8 µM, 5 µM and 7.9 µM, respectively.

`COC(=O)c1ccc(N(Cc2ccc(C3CCCCC3)nc2)C(=O)[C@H]2CCN2S(=O)(=O)c2c(F)c(F)c(F)c(F)c2F)cc1O`: the EC50 in assay [2] is 2 µM.

Take `O=C(NO)c1cc(F)c(N(Cc2ccc(C3CCOCC3)cc2)C(=O)[C@H]2CCN2S(=O)(=O)c2c(F)c(F)c(F)c(F)c2F)cc1O`: the 50% effective concentration (EC50) in assay [2] turned out to be 5.1 µM.

`O=C([C@H]1CCN1S(=O)(=O)c1c(F)c(F)c(F)c(F)c1F)N(Cc1cnc(C2CCCCC2)cn1)c1ccc2c(=O)[nH]cnc2c1`: the EC50 in assay [2] is 4.2 µM.

As to `O=C1NCc2cc(N(Cc3ccc(C4CCCCC4)cn3)C(=O)[C@H]3CCN3S(=O)(=O)c3c(F)c(F)c(F)c(F)c3F)c(F)cc21`, the concentration giving a half-maximal response (EC50) in assay [2] was 2 µM.

On to `O=C([C@H]1CCN1S(=O)(=O)c1c(F)c(F)c(F)c(F)c1F)N(Cc1ccc(C2CCCCC2)cc1)c1cc2[nH]ncc2cc1F`, for which the figures for the EC50 in assay [1], in assay [2] and in assay [3] were 9.4 µM, 2.4 µM and 8.1 µM, respectively.

`COC(=O)c1ccc(N(Cc2ccc(C3CCCCC3)cn2)C(=O)[C@H]2CCN2S(=O)(=O)c2c(F)c(F)c(F)c(F)c2F)cc1O`: in assay [2], the EC50 came out at 1.8 µM.

Consider `O=C(NO)c1ccc(N(Cc2ccc(C3CCCCC3)cn2)C(=O)[C@H]2CCN2S(=O)(=O)c2c(F)c(F)c(F)c(F)c2F)cc1O`, for which the concentration giving a half-maximal response (EC50) in assay [4] is 6.2 µM.
